This note sets out measurements from ChEMBL document CHEMBL1649136, “Plasmodium falciparum pfmdr1 amplification, mefloquine resistance, and parasite fitness” (Antimicrob Agents Chemother, 2009).

This assay deals with Plasmodium falciparum. Nature of the assay: Antimicrobial activity against Plasmodium falciparum isolate TM3036 expressing 1 copies of pfmdr1 gene.

The IC50 is the concentration that gives 50% inhibition. As to `Cl.OC(c1cc(C(F)(F)F)nc2c(C(F)(F)F)cccc12)C1CCCCN1` (stereo unspecified) [MEFLOQUINE HYDROCHLORIDE], the IC50 came to 1.47 ng/mL.
